Assay results: patent US9879013B2, “Purinone derivative” (ONO PHARMACEUTICAL CO., LTD., priority 2010, dated 2018)

Key:
Human CYP2C19 = Human CYP2C19 (Homo sapiens (Human), UniProt P33261); test: Inhibitory action on human CYP2C19; format: in vitro ADME
Protocol: (§1) Measurement of the Inhibitory Activity on Drug-Metabolizing Enzymes (Inhibitory Action on Human CYP2C8 and Human CYP2C19)
The reaction was carried out in a 96-well plate. The positive control substances (CYP2C8: ketoconazole, CYP2C19: tranylcypromine) were adjusted (CYP2C8: 0.6 and 6 mmol/L, CYP2C19: 0.9 and 9 mmol/L) with DMSO to concentrations that were 300 times the final concentration, and solutions were prepared (CYP2C8: 8 and 80 μmol/L, CYP2C19: 12 and 120 μmol/L) by 75× dilution with purified water that contained 2.7% acetonitrile. The test compounds were adjusted to […] with DMSO and were adjusted to 4 and 40 μmol/L by 75× dilution with purified water that contained 2.7% acetonitrile. A reaction mixture was then prepared (the numerical values are final concentrations) by the addition of potassium phosphate buffer (pH 7.4), magnesium chloride ([…]), substrate (CYP2C8: dibenzylfluorescein 1 μmol/L, CYP2C19: 3-cyano-7-ethoxycoumarin 25 μmol/L), and E. coli-expressed liver microsome CYP2C8 (Cypex, 10 pmol/L) and CYP2C19 (Cypex, 3 pmol/L). 100 μL of this reaction mixture and 50 μL of the test compound prepared as described above and the positive control solution prepared as described above were dispensed into each well and pre-incubation was carried out at 10 minutes for 37° C. The reaction was started by the addition of 50 μL NADPH solution (final concentration=1 mmol/L) and incubation was carried out for 30 minutes at 37° C. The fluorescence intensity was measured (CYP2C8: excitation wavelength=485 nm, fluorescence wavelength=538 nm; CYP2C19: excitation wavelength=409 nm, fluorescence wavelength=460 nm) immediately after the addition of the NADPH and after incubation for 30 minutes.

Human liver cells [1] = test: Ability to reduce the mitochondrial membrane potential in cultured human hepatoma cells (JC-1); format: cell-based; conditions: JC-1, exposure for 24 hours, read-out: Ability to lower the mitochondrial membrane potential (IC50 (μM))
Source text: (§2) Measurement of the Cytotoxicity and Ability to Reduce the Mitochondrial Membrane Potential in Cultured Human Hepatoma Cells
Tissue that maintains an aerobic equilibrium, e.g., the kidneys and heart, and tissue that is exposed to high drug concentrations and carries out drug metabolism, e.g., the liver, are known to be sensitive to mitochondrial dysfunction (Drug Discovery Today, 12 (17-18), 777-785, 2007). The reduction or extinction of the mitochondrial membrane potential by a drug is caused by the direct inhibition of the electron transport system, decoupling of electron transport from ATP synthase, or the opening of a mitochondrial membrane permeability transition pore. As a consequence, measurement of the mitochondrial membrane potential of liver cells can provide a parameter for hepatotoxicity.
(§3) Human liver cells were seeded into a collagen-coated 96-well plate at a cell density of 30,000 cells/well and incubation was carried out overnight in an incubator at 37° C. in 5% CO2-95% air. The cultured cells were stained for 1 hour with 5,5′,6,6′-tetrahydro-1,1′,3,3′-tetramethyl-benzamidazolocarbocyanine iodide (JC-1) followed by treatment with the test compound. The test compound was dissolved in DMSO and then diluted with the liquid culture medium Hepatocyte Culture Medium (HCM) and added to the cells. The test compound treatment concentrations were 0, 6.25, 12.5, 25, 50, 100, 200, and 400 μmol/L. After exposure to the test compound for 24 hours, measurement was performed with a SpectraMax plate reader (Molecular Devices, LLC) at an excitation wavelength of 485 nm and a fluorescence wavelength of 538 nm and an excitation wavelength of 544 nm and a fluorescence wavelength of 590 nm. The membrane potential was determined by the ratio between the 544 nm/590 nm measurement value and the 485 nm/538 nm measurement value. After this, the ATP concentration in the cells was measured using a Celltiter Glo luminescent assay kit (Promega Corporation) in order to evaluate the cell toxicity of the test compound. The cells were lysed by the assay buffer provided with the measurement kit and the concentration of the ATP released from the cells was measured using the luciferin-luciferase enzyme activity as the index. The emission was measured using a SpectraMax plate reader. […] The ability to lower the mitochondrial membrane potential of the test compounds and the cytotoxicity of the test compounds are given in Table 3 below.

Human liver cells [2] = test: Cytotoxicity in cultured human hepatoma cells (ATP concentration, Celltiter Glo); format: cell-based; conditions: 50% decline in ATP concentration, exposure for 24 hours, read-out: Toxicity for human liver cells (IC50 (μM))
Protocol: as §2, §3

Human CYP2C8 = Human CYP2C8 (Homo sapiens (Human), UniProt P10632); test: Inhibitory action on human CYP2C8; format: in vitro ADME
Chain of Human CYP2C8 (P10632 whole entry): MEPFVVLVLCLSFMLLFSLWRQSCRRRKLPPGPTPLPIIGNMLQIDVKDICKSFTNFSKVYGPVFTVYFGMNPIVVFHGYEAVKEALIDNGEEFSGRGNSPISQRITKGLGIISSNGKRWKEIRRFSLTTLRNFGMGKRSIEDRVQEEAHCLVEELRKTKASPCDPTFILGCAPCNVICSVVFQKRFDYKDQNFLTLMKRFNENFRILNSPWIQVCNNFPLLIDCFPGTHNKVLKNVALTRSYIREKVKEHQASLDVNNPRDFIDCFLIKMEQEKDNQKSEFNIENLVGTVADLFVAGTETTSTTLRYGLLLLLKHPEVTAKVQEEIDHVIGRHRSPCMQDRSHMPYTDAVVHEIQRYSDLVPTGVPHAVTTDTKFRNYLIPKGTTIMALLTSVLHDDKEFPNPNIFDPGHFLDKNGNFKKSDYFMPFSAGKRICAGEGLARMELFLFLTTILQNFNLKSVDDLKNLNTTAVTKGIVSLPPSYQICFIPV
Protocol: as §1
The reaction was carried out in a 96-well plate. […] 100 μL of this reaction mixture and 50 μL of the test compound prepared as described above and the positive control solution prepared as described above were dispensed into each well and pre-incubation was carried out at 10 minutes for 37° C. The reaction was started by the addition of 50 μL NADPH solution (final concentration=1 mmol/L) and incubation was carried out for 30 minutes at 37° C.

[3] = Stability in the rat liver microsome; conditions: 0.5 mg/mL microsomes, NADPH, 15 minutes at 37° C.
Protocol: (§7) Evaluation of the Stability in the Rat and Human Liver Microsome
(§8) A 0.25 mmol/L solution was prepared by diluting the test compound (10 mmol/L DMSO solution, 5 μL) with an aqueous 50% acetonitrile solution (195 μL).
(§9) 20 μL was collected immediately after the start and the reaction was stopped by the addition to 180 μL of acetonitrile that contained an internal standard (warfarin). 20 μL of this solution was stirred with 180 μL of an aqueous 50% acetonitrile solution on a filter plate for protein depletion followed by suction filtration, and the filtrate was used as the standard sample.
(§10) The previously indicated reaction solution was incubated for 15 minutes at 37° C., and 20 μL was then added to 180 μL cold acetonitrile (contained the internal standard warfarin) to stop the reaction. 20 μL of this was stirred with 180 μL of an aqueous 50% acetonitrile solution on a filter plate for protein depletion followed by suction filtration, and the filtrate was used as the standard sample.

[4] = Stability in the human liver microsome; conditions: 0.5 mg/mL microsomes, NADPH, 15 minutes at 37° C.
Protocol: as §7, §8, §9, §10

Btk = Btk (Homo sapiens (Human), UniProt Q06187); test: Btk enzyme inhibitory activity (Z'-LYTE Kinase Assay Kit-Tyr1 peptide); format: biochemical; conditions: Tyr-1 peptide 4 μM, Btk 5 nM, ATP 36 μM, 1 hour at 30° C.
Chain of Btk (Q06187 whole entry): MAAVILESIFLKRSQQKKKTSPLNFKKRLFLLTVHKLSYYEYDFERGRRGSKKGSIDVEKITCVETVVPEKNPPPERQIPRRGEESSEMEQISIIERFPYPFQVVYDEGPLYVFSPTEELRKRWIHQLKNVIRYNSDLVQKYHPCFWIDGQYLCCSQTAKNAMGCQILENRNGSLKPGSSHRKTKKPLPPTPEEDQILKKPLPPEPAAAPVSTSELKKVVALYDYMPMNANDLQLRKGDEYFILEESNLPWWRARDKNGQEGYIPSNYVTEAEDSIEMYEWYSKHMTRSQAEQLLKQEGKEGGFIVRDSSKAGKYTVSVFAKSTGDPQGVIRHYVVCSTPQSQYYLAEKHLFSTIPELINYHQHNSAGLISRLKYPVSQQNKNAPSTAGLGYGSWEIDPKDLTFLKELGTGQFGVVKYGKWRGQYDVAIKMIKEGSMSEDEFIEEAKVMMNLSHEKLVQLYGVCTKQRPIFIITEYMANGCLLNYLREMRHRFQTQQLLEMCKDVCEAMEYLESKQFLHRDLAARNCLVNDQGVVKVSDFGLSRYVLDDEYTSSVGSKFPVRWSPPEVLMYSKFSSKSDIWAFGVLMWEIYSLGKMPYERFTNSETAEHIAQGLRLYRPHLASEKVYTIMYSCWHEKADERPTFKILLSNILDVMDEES
Protocol: The Btk enzyme inhibitory activity was measured, based on the protocol provided by the manufacturer, using Btk (Invitrogen Corporation) and the Z′-LYTE® Kinase Assay Kit-Tyr1 peptide (Invitrogen Corporation), which contained the following reagents: Tyr-1 peptide, Thy-1 phosphopeptide, 5× kinase buffer, ATP, development reagent B, development buffer, and stop reagent.
5 μL/well of a solution of the test compound diluted with dimethyl sulfoxide (DMSO), or DMSO, and 10 μL/well of the substrate/enzyme mixture solution were dispensed to a 96-well assay plate and a reaction was carried out for 20 minutes at 30° C. […] The enzymatic reaction was then stopped by adding 10 μL of the stop solution.
The percent inhibition (%) by the test compound was calculated using the following equation. percent inhibition (%) of phosphorylation=1−{(AC−AX)/(AC−AB)}×100 [E1]

Lck = Lck (Homo sapiens (Human), UniProt P06239); test: Lck inhibitory activity, selectivity for Btk (Z'-LYTE kinase assay); format: biochemical; conditions: ratio of the IC50 values of the individual kinases
Chain of Lck (P06239 whole entry): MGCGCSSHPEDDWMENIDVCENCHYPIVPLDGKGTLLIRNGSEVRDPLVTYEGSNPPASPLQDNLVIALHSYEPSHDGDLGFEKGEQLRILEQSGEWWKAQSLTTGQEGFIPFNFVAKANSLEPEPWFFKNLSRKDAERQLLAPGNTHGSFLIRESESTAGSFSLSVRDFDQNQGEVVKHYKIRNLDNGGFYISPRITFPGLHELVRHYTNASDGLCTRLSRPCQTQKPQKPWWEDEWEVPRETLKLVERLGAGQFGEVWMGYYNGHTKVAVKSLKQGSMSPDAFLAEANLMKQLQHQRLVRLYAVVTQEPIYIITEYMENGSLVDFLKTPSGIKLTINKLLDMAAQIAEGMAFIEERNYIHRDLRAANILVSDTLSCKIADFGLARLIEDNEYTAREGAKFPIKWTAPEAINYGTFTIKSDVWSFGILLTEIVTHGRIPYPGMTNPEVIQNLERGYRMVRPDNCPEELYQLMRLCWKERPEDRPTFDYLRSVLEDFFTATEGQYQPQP
Protocol: (§4) The inhibitory activity for other kinases (for example, Lck, Fyn, and LynA (all from Invitrogen Corporation) was measured in the same manner as described above using the particular kinase in place of the Btk.

Fyn = Fyn (Homo sapiens (Human), UniProt P06241); test: Fyn inhibitory activity, selectivity for Btk (Z'-LYTE kinase assay); format: biochemical; conditions: ratio of the IC50 values of the individual kinases
Chain of Fyn (P06241 whole entry): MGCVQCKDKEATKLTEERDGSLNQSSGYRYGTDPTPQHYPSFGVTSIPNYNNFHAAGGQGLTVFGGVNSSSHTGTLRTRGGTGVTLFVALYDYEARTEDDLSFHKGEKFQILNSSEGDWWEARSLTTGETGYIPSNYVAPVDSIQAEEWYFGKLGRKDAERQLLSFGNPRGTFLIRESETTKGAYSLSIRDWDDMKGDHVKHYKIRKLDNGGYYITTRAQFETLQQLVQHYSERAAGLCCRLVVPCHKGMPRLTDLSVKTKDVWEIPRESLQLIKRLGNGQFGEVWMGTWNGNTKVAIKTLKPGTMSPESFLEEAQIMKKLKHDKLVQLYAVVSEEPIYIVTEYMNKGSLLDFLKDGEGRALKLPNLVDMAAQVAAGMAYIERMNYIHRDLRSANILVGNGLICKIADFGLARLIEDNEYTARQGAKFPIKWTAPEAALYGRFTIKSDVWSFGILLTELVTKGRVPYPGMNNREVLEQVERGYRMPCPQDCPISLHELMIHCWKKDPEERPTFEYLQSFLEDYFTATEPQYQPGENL
Protocol: as §4

LynA = LynA (Homo sapiens (Human), UniProt P07948); test: LynA inhibitory activity, selectivity for Btk (Z'-LYTE kinase assay); format: biochemical; conditions: ratio of the IC50 values of the individual kinases
Chain of LynA (P07948 whole entry): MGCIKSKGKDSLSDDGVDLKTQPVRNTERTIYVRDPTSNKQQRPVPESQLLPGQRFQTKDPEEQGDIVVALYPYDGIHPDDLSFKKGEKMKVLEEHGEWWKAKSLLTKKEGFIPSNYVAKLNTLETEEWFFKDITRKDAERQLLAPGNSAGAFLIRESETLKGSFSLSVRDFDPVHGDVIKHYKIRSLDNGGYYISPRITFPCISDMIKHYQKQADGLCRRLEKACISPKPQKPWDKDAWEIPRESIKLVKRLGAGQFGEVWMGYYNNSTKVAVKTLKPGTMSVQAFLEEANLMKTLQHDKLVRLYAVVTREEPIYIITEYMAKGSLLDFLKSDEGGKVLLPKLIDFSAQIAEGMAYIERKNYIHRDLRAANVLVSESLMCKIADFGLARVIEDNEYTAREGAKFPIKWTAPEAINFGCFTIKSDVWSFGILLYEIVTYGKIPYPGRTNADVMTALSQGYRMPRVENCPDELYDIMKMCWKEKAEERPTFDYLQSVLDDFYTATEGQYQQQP
Protocol: as §4

[5] = tested on: B cells (CD20-positive CD3-negative cells) of human PBMC; test: B cell activation using human PBMC (CD69-positive signal, FACS); format: cell-based; conditions: anti-IgM antibody 1 μg/mL / IL-4 3 ng/mL, 22 hours
Protocol: (§5) Measurement of B Cell Activation or T Cell Activation Using Human PBMC
(§6) A 10 mmol/L solution of the test compound in DMSO was dispensed into a 96-well plate (Nunc) and a 5× dilution series was prepared using DMSO. A 100× concentration test compound dilution solution was prepared by an additional 10× dilution with RPMI1640 medium (contained 10% HI-FBS, 1% penicillin). Human peripheral blood mononuclear cells (PBMC) were diluted with the medium to provide a density of 2×10^6 cells/mL. 396 μL of the cell suspension was added to a 96-well plate into which 4 μL of the 100× concentration test compound dilution solution or the solvent (10% DMSO) had already been introduced and incubation was performed for 10 minutes at 37° C. and 5% CO2. 10 μL of an anti-IgM antibody (Southern Biotech)/IL-4 (R & D Systems) solution or an anti-CD3/CD28 antibody bead suspension (Invitrogen Corporation) was added to a 96-well plate and 90 μL of the cell suspension prepared as described above was also added (final concentrations: anti-IgM antibody=1 μg/mL, IL-4=3 ng/mL, and anti-CD3/CD28 antibody beads=2×10^6 beads/mL). 10 μL of the medium was added to the unstimulated sample wells in place of these stimulating substances, and standing at 37° C. and 5% CO2 was again performed. Incubation was carried out for 16 hours in the case of the evaluation of T cell activation and for 22 hours in the case of the evaluation of B cell activation. 100 μL Cytofix Buffer (BD Biosciences) was added; holding for 15 minutes at 37° C. was performed; centrifugation for 10 minutes at 1500 rpm was carried out; and the supernatant was removed. 200 μL of Perm buffer II (BD Biosciences) at −20° C. was added; holding for 30 minutes on ice was performed; centrifugation for 10 minutes at 1500 rpm was carried out; and the supernatant was removed. 0.5 mL Stain buffer (BD Biosciences) was added and centrifugation was carried out for 10 minutes at 1500 rpm. 100 μL of a mixed antibody solution was added and incubation was performed for 30 minutes on ice in the dark. The antibody was the 10× dilution with Stain Buffer of the 1:1:1 mixture of PerCP-labeled anti-CD3 antibody (BD Biosciences), AF488-labeled anti-CD20 antibody (BD Biosciences), and PE-labeled anti-CD69 antibody (BD Biosciences). 0.4 mL Stain Buffer was added and the supernatant was removed. […] The CD69-positive signal (average fluorescence intensity) of the CD20-positive CD3-negative cells (B cells) or CD3-positive CD20-negative cells (T cells) was measured. After subtracting the value for the unstimulated sample, the % inhibition with reference to the value for the stimulated control sample was determined. The % inhibition was graphically plotted using Prism (ver. 5.01 J, GraphPad Software) and the IC50 value was determined.

[6] = tested on: T cells (CD3-positive CD20-negative cells) of human PBMC; test: T cell activation using human PBMC (CD69-positive signal, FACS); format: cell-based; conditions: anti-CD3/CD28 antibody beads, 16 hours
Protocol: as §5, §6

Chain of Human CYP2C19 (P33261 whole entry): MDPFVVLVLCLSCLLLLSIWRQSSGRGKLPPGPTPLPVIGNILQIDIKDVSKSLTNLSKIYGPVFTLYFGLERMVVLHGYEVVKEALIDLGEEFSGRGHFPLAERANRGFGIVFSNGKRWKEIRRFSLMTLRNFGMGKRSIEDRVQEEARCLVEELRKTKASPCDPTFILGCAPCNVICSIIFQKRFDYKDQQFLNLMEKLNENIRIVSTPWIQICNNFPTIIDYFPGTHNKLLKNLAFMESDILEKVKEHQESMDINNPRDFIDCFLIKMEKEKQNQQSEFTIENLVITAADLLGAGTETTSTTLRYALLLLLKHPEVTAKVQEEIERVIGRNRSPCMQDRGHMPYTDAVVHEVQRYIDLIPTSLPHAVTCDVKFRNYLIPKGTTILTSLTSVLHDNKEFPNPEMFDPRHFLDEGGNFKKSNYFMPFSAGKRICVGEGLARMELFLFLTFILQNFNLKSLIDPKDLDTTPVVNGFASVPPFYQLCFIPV

Compound	IC50 (Human CYP2C19)	IC50 (Human liver cells [1])	IC50 (Human liver cells [2])	IC50 (Human CYP2C8)	Residual ratio (%) in the rat liver microsome [3]	Residual ratio (%) in the human liver microsome [4]	IC50 (Btk)	Lck[IC50]/Btk[IC50] (Lck)	Fyn[IC50]/Btk[IC50] (Fyn)	LynA[IC50]/Btk[IC50] (LynA)	IC50 [5]	IC50 [6]
C=CC(=O)N1CCC[C@@H](n2nc(-c3ccc(Oc4ccccc4)cc3)c3c(N)ncnc32)C1 [Comparative compound A, reference compound]	5.6 µM	39 µM	78 µM	–	–	–	–	–	–	–	–	–
C#CC(=O)N1CCC(n2nc(-c3ccc(Oc4ccccc4)cc3)c3c(N)ncnc32)C1 (centres unmarked) [Comparative compound B, reference compound]	8.1 µM	< 6.25 µM	< 6.25 µM	6.9 µM	50.6%	55.9%	–	–	–	–	–	–
C=CC(=O)N1CCC(Cn2c(=O)n(-c3ccc(Oc4ccccc4)cc3)c3c(N)ncnc32)CC1 [Example 8(14), 9-[(1-acryloyl-4-piperidinyl)methyl]-6-amino-7-(4-phenoxyphenyl)-7,9-dihydro-8H-purin-8-one]	> 10 µM	–	–	> 10 µM	–	–	0.004 µM	220	2500	1767	0.023 µM	> 10 µM
CN(C)C/C=C/C(=O)N1CC[C@@H](n2c(=O)n(-c3ccc(Oc4ccccc4)cc3)c3c(N)ncnc32)C1 [Example 11(3), 6-amino-9-{(3R)-1-[(2E)-4-(dimethylamino)-2-butenoyl]-3-pyrrolidinyl}-7-(4-phenoxyphenyl)-7,9-dihydro-8H-purin-8-one]	> 10 µM	–	–	> 10 µM	–	–	0.014 µM	19	236	143	0.032 µM	> 10 µM
CN(C)C/C=C/C(=O)N1CCC(n2c(=O)n(-c3ccc(Oc4ccccc4)cc3)c3c(N)ncnc32)C1 (centres unmarked) [Example 11(24), 6-amino-9-{1-[(2E)-4-(dimethylamino)-2-butenoyl]-3-pyrrolidinyl}-7-(4-phenoxyphenyl)-7,9-dihydro-8H-purin-8-one]	–	347 µM	213 µM	–	88.5%	100%	–	–	–	–	–	–
CC#CC(=O)N1CC[C@@H](n2c(=O)n(-c3ccc(Oc4ccccc4)cc3)c3c(N)ncnc32)C1 [Example 19(2), 6-amino-9-[(3R)-1-(2-butynoyl)-3-pyrrolidinyl]-7-(4-phenoxyphenyl)-7,9-dihydro-8H-purin-8-one]	> 10 µM	200 µM	135 µM	> 10 µM	–	–	–	–	–	–	0.061 µM	> 10 µM
CC#CC(=O)N1CCC(n2c(=O)n(-c3ccc(Oc4ccccc4)cc3)c3c(N)ncnc32)C1 (centres unmarked) [Example 19(9), 6-amino-9-[1-(2-butynoyl)-3-pyrrolidinyl]-7-(4-phenoxyphenyl)-7,9-dihydro-8H-purin-8-one]	–	181 µM	97 µM	–	–	–	–	–	–	–	–	–
CC#CC(=O)N1CC[C@@H](n2c(=O)n(-c3ccc(C(=O)c4ccccc4)cc3)c3c(N)ncnc32)C1 [Example 19(40), 6-amino-7-(4-benzoylphenyl)-9-[(3R)-1-(2-butynoyl)-3-pyrrolidinyl]-7,9-dihydro-8H-purin-8-one]	–	–	–	–	–	–	0.011 µM	–	–	–	–	–
